In US4988697A, “Fungicidal compositions and method” (Merck & Co., Inc., priority 1989, dated 1991):

Assays:
Assay type in all cases: cell-based
Candida albicans = test: Synergistic and fungicidal effect on exponential phase cultures (CFU/ml over time); conditions: ketoconazole 1 μg/ml
Experimental: Synergistic and fungicidal effects were determined by treating exponential phase Candida albicans cultures with β-Lactone at MIC and MFC levels and ketoconazole at 0.1 μg/ml or a 1 μg/ml alone or in combination. Exponential phase cultures were prepared by diluting an overnight culture 1:50 or 1:1000 in YNB/G. After incubating the diluted cells 7 or 17 hrs. at 37° C., the exponential phase cells were diluted in YNB/G to A600 =0.0004 u/ml to obtain 3000 cfu/ml.
10 microliters (μl) of β-lactone compound or ketoconazole prepared in DMSO was added to 1 ml of diluted exponential phase cells. The tubes were incubated at 37° C. at 250 rpm for 27 hours. Periodically, aliquots were diluted in 0.9% saline and plated on Sabouraud dextrose agar plates to determine the number of cfu/ml.

F. oxysporium = test: MIC against fungal panel, F. oxysporium; conditions: read-out: MIC, Ketoconazole Alone
Experimental: (§1) First the MIC for the β-lactone compound and the MIC for the ketoconazole were determined against an array of organisms. Thereafter, the effects on the MIC of adding 0.031, 0.125, 0.5 and 2 μg/ml of ketoconazole were determined.

C. albicans (Y1750) = test: MIC against fungal panel, C. albicans (Y1750); conditions: Candida albicans, read-out: MIC, Ketoconazole Alone
Experimental: as §1

C. miyabeamis = test: MIC against fungal panel, C. miyabeamis; conditions: read-out: MIC, Ketoconazole Alone
Experimental: In a manner similar to that above described for effect against Candida albicans the synergistic effect of the combination of the β-lactone compound and ketoconazole against a fungal panel was determined by plating on potato dextrose agar.
as §1

C. neoformans = test: MIC against fungal panel, C. neoformans; conditions: Cryptococcus neoformans, read-out: MIC, Ketoconazole Alone
Experimental: as §1

C. albicans (Y1055) = test: MIC against fungal panel, C. albicans (Y1055); conditions: Candida albicans, read-out: MIC, Ketoconazole Alone
Experimental: as §1

A. niger = test: MIC against fungal panel, A. niger; conditions: Aspergillus niger, read-out: MIC, Ketoconazole Alone
Experimental: as §1

U. zeae = test: MIC against fungal panel, U. zeae; conditions: read-out: MIC, Ketoconazole Alone
Experimental: as §1

CC(=O)N1CCN(c2ccc(OC[C@H]3CO[C@](Cn4ccnc4)(c4ccc(Cl)cc4Cl)O3)cc2)CC1 (relative stereo) [Ketoconazole, cis-1-acetyl-4-[4-[[2-(2,4-dichlorophenyl)-2-(1H-imidazole-1-ylmethyl)-1,3-dioxolan-4-yl]methoxy]-phenyl]piperazine]
Fungal Growth (Candida albicans; Table 1, 0 hours): 2.95 × 10^3 CFU/ML | Fungal Growth (Candida albicans; Table 1, 2 hours, β-lactone 2.5 μg/ml, alone or combined): 5.1 × 10^3 CFU/ML | Fungal Growth (Candida albicans; Table 1, 4.5 hours, β-lactone 2.5 μg/ml, alone or combined): 1.09 × 10^4 CFU/ML | Fungal Growth (Candida albicans; Table 1, 7 hours, β-lactone 2.5 μg/ml, alone or combined): 2.40 × 10^4 CFU/ML | Fungal Growth (Candida albicans; Table 1, 11 hours, β-lactone 2.5 μg/ml, alone or combined): 6.90 × 10^4 CFU/ML | Fungal Growth (Candida albicans; Table 1, 17 hours, β-lactone 2.5 μg/ml, alone or combined): 1.36 × 10^5 CFU/ML | Fungal Growth (Candida albicans; Table 1, 22 hours, β-lactone 2.5 μg/ml, alone or combined): 3.30 × 10^5 CFU/ML | Fungal Growth (Candida albicans; Table 1, 27 hours, β-lactone 2.5 μg/ml, alone or combined): 7.20 × 10^5 CFU/ML | Fungal Growth (Candida albicans; Table 2, 0 hours): 2.95 × 10^3 CFU/ML | Fungal Growth (Candida albicans; Table 2, 2 hours, β-lactone 10 μg/ml, alone or combined): 5.1 × 10^3 CFU/ML | Fungal Growth (Candida albicans; Table 2, 4.5 hours, β-lactone 10 μg/ml, alone or combined): 1.09 × 10^4 CFU/ML | Fungal Growth (Candida albicans; Table 2, 7 hours, β-lactone 10 μg/ml, alone or combined): 2.40 × 10^4 CFU/ML | Fungal Growth (Candida albicans; Table 2, 11 hours, β-lactone 10 μg/ml, alone or combined): 6.90 × 10^4 CFU/ML | Fungal Growth (Candida albicans; Table 2, 17 hours, β-lactone 10 μg/ml, alone or combined): 1.36 × 10^5 CFU/ML | Fungal Growth (Candida albicans; Table 2, 22 hours, β-lactone 10 μg/ml, alone or combined): 3.30 × 10^5 CFU/ML | Fungal Growth (Candida albicans; Table 2, 27 hours, β-lactone 10 μg/ml, alone or combined): 7.20 × 10^5 CFU/ML | MIC (F. oxysporium): > 2 µg/mL | MIC (C. albicans (Y1750)): > 2 µg/mL | MIC (C. miyabeamis): 2 µg/mL | MIC (C. neoformans): > 2 µg/mL | MIC (C. albicans (Y1055)): > 2 µg/mL | MIC (A. niger): > 2 µg/mL | MIC (U. zeae): > 2 µg/mL
